Drawing on patent US7064236B2, “Substituted 1-aryl-but-3-enylamine and 1-aryl-but-2-enylamine compounds” (Grunenthal GmbH, priority 2001, dated 2006), this text covers inhibition in vivo for nine compounds.

Structures can show the parent of a compound that is named as a salt.

The first test deals with phenylquinone-induced writhing in mice. Kind of test: Analgesic testing by phenylquinone-induced writhing test in mice. As to conditions: 10 min; 10 mg/kg intravenous, mouse, phenylquinone i.p. 10 minutes after compound; read-out: % Inhibition of writhing reaction. The format is in vivo, mouse (male NMRI mice). On the procedure:
Analgesic Testing by Writhing Test in Mice
The investigation into analgesic efficacy was performed by phenylquinone-induced writhing in mice (modified after: I. C. Hendershot and J. Forsaith (1959) J. Pharmacol. Exp. There. 125, 237–240). Male NMRI mice weighing from 25–30 g were used for this purpose. 10 minutes after intravenous administration of the test compounds, groups of 10 animals per dose of a compound received 0.3 ml/mouse of a 0.02% aqueous solution of phenylquinone (phenylbenzoquinone, sigma, Deisenhofen; production of the solution with addition of 5% ethanol and storage in water bath at 45° C.), administered intraperitoneally. The animals were placed individually in observation cages. A push button counter was used to record the number of pain-induced stretching movements (writhing reactions=straightening of the torso with stretching of the rear extremities) for 5–20 minutes after phenylquinone administration. The control was provided by animals who received only physiological common salt solution. All the compounds were tested at the standard dosage of 10 mg/kg. The percentage inhibition (%inhibition) of the writhing reaction by a compound of the general formula I according to the invention was calculated according to the following formula: […]
The in-depth investigation of the compounds of the general formula I according to the invention for analgesic efficacy was performed by phenylquinone-induced writhing in mice, as described above.
(In general: An intraperitoneal irritant provokes the stretching counted in writhing tests.)
For the compound `CN(C)C(C1=C(Cc2cccc(F)c2)CCCC1)c1ccccc1` (stereo not drawn) [Example 21, {[2-(3-Fluoro-benzyl)-cyclohex-1-enyl)-phenyl-methyl}-dimethyl-amine hydrochloride], the inhibition in vivo at 10 mg/kg was 67%.

On to `COc1ccc(C2=CCCCC2C(c2ccccc2)N(C)C)cc1` (stereo not drawn) [Example 27, {[2-(4-methoxy-phenyl)-cyclohex-2-enyl]-phenyl-methyl}-dimethylamine hydrochloride], for which the inhibition in vivo at 10 mg/kg is 47%.

Turning to `CN(C)C(C1=C(Cc2ccccc2F)CCCC1)c1ccccc1` (stereo not drawn) [Example 19, {[2-(2-Fluoro-benzyl)-cyclohex-1-enyl)-phenyl-methyl}-dimethyl-amine hydrochloride], the inhibition in vivo at 10 mg/kg was determined as 87%.

`CN(C)C(C1=C(c2ccc(Cl)cc2)CCCC1)c1ccccc1` (stereo not drawn) [Example 28, {[2-(4-Chloro-phenyl)-cyclohex-1-enyl]-phenyl-methyl}-dimethyl-amine hydrochloride]: the inhibition in vivo at 10 mg/kg is 71%.

Turning to `CN(C)C(C1=C(Cc2ccccc2Cl)CCCC1)c1ccccc1` (stereo not drawn) [Example 20, {[2-(2-Chloro-benzyl)-cyclohex-1-enyl]-phenyl-methyl}-dimethyl-amine hydrochloride], the inhibition in vivo at 10 mg/kg came out at 63%.

Regarding `CN(C)C(c1ccccc1)C1CCCC=C1c1cccc(O)c1` (stereo not drawn) [Example 24, 3-[6-(dimethylamino-phenyl-methyl)-cyclohex-1-enyl]-phenol hydrochloride], the inhibition in vivo at 10 mg/kg was found to be 76%.

As for `CN(C)C(C1=C(CCc2ccccc2)CCCC1)c1ccccc1` (stereo not drawn) [Example 23, Dimethyl-[(2-phenethyl-cyclohex-1-enyl)-phenyl-methyl]-amine hydrochloride], the inhibition in vivo at 10 mg/kg is 67%.

With `CN(C)C(C1=C(c2ccccc2)CCCC1)c1ccc(C(F)(F)F)cc1` (stereo not drawn) [Example 29, Dimethyl-[(2-phenyl-cyclohex-1-enyl)-(4-trifluoromethyl-phenyl)-methyl]-amine hydrochloride], the inhibition in vivo at 10 mg/kg was 40%.

Staying with this test, now noted: 10 min; 21.5 mg/kg intravenous, mouse, phenylquinone i.p. 10 minutes after compound; read-out: % Inhibition of writhing reaction.
For `CN(C)C(C1=C(Cc2cccc(C(F)(F)F)c2)CCCC1)c1ccccc1` (stereo not drawn) [Example 22, Dimethyl-{phenyl-[2-(3-trifluoromethyl-benzyl)-cyclohex-1-enyl]-methyl}-amine hydrochloride], the inhibition in vivo at 21.5 mg/kg stood at 46%.
